What all share (assay type): functional
The test system of one experiment is 786-0. Put plainly: Cytotoxicity against Homo sapiens (human) 786-0 cells assessed as growth inhibition at 10 uM after 48 hr by coulter counter analysis. Particulars: 786-0, 48 h, read-out: GI.
For the next experiment, the system named is SK-OV-3. Put plainly: Cytotoxicity against Homo sapiens (human) SKOV3 cells assessed as growth inhibition at 10 uM after 48 hr by coulter counter analysis. The following applies: SK-OV-3, 48 h, read-out: GI.
A further experiment deals with T47D. Put plainly: Cytotoxicity against Homo sapiens (human) T47D cells assessed as growth inhibition at 10 uM after 48 hr by coulter counter analysis. The following applies: read-out: GI.
For another experiment, the system named is BT-549. Put plainly: Cytotoxicity against Homo sapiens (human) BT549 cells assessed as growth inhibition at 10 uM after 48 hr by coulter counter analysis. Particulars: BT-549, 48 h, read-out: GI.
Another experiment deals with Hs-578T. Put plainly: Cytotoxicity against Homo sapiens (human) Hs578T cells assessed as growth inhibition at 10 uM after 48 hr by coulter counter analysis. Particulars: read-out: GI.
The test system of a further experiment is MDA-MB-231. Put plainly: Cytotoxicity against Homo sapiens (human) MDA-MB-231 cells assessed as growth inhibition at 10 uM after 48 hr by coulter counter analysis. Particulars: MDA-MB-231, 48 h, read-out: GI.
The test system of the next experiment is MDA-MB-435. Put plainly: Cytotoxicity against Homo sapiens (human) MDA-MB-435 cells assessed as growth inhibition at 10 uM after 48 hr by coulter counter analysis. The following applies: MDA-MB-435, 48 h, read-out: GI.
A further experiment deals with Malme-3M. Put plainly: Cytotoxicity against Homo sapiens (human) MALME-3M cells assessed as growth inhibition at 10 uM after 48 hr by coulter counter analysis. Particulars: read-out: GI.
For a further experiment, the system named is SNB-19. Put plainly: Cytotoxicity against Homo sapiens (human) SNB19 cells assessed as growth inhibition at 10 uM after 48 hr by coulter counter analysis. Particulars: SNB-19, 48 h, read-out: GI.
A further experiment concerns SF-295. Put plainly: Cytotoxicity against Homo sapiens (human) SF295 cells assessed as growth inhibition at 10 uM after 48 hr by coulter counter analysis. The following applies: SF-295, 48 h, read-out: GI.
The next experiment concerns SW-620. Put plainly: Cytotoxicity against Homo sapiens (human) SW620 cells assessed as growth inhibition at 10 uM after 48 hr by coulter counter analysis. Particulars: SW-620, 48 h, read-out: GI.
For the next experiment, the system named is HCT-116. Put plainly: Cytotoxicity against Homo sapiens (human) HCT116 cells assessed as growth inhibition at 10 uM after 48 hr by coulter counter analysis. The following applies: HCT-116, 48 h, read-out: GI.
The test system of a further experiment is NCI-H522. Put plainly: Cytotoxicity against Homo sapiens (human) NCI-H522 cells assessed as growth inhibition at 10 uM after 48 hr by coulter counter analysis. The following applies: NCI-H522, 48 h, read-out: GI.
The subject of another experiment is IGROV-1. Put plainly: Cytotoxicity against Homo sapiens (human) IGROV1 cells assessed as growth inhibition at 10 uM after 48 hr by coulter counter analysis. Particulars: IGROV-1, 48 h, read-out: GI.
For the next experiment, the system named is UACC-257. Put plainly: Cytotoxicity against Homo sapiens (human) UACC257 cells assessed as growth inhibition at 10 uM after 48 hr by coulter counter analysis. The following applies: UACC-257, 48 h, read-out: GI.
For the next experiment, the system named is NCI-H460. Put plainly: Cytotoxicity against Homo sapiens (human) NCI-H460 cells assessed as growth inhibition at 10 uM after 48 hr by coulter counter analysis. Particulars: NCI-H460, 48 h, read-out: GI.
Another experiment concerns NCI-H226. Put plainly: Cytotoxicity against Homo sapiens (human) NCI-H226 cells assessed as growth inhibition at 10 uM after 48 hr by coulter counter analysis. Particulars: NCI-H226, 48 h, read-out: GI.
For another experiment, the system named is HOP-62. Put plainly: Cytotoxicity against Homo sapiens (human) HOP62 cells assessed as growth inhibition at 10 uM after 48 hr by coulter counter analysis. Particulars: HOP-62, 48 h, read-out: GI.
The next experiment deals with CCRF-CEM. Put plainly: Cytotoxicity against Homo sapiens (human) CCRF-CEM cells assessed as growth inhibition at 10 uM after 48 hr by coulter counter analysis. The following applies: read-out: GI.

Regarding `O=c1c2ccccc2nc(SCCN2CCCCC2)n1CCc1ccccc1`, the inhibition of growth at 10 µM was 14% with 786-0; under 10% in the experiment on SK-OV-3; 35% in the experiment on T47D; 14% in the experiment on BT-549; under 10% in the experiment with Hs-578T; 34% in the experiment with MDA-MB-231. For the same compound, the inhibition of growth at 10 µM in the experiment with MDA-MB-435 was under 10%; with Malme-3M it was under 10%; in the experiment with SNB-19, under 10%; in the experiment on SF-295, 13%; in the experiment on SW-620, 11%; in the experiment with HCT-116, 27%. Moreover, the inhibition of growth at 10 µM in the experiment with NCI-H522 is 11%; in the experiment on IGROV-1, 22%; in the experiment on UACC-257 it was under 10%; with NCI-H460, under 10%; with NCI-H226, under 10%; in the experiment on HOP-62 it was 11%.

In the case of `O=c1c2ccccc2nc(SCc2ccc([N+](=O)[O-])cc2)n1CCc1ccccc1`, the inhibition of growth at 10 µM with 786-0 is under 10%; in the experiment with SK-OV-3 it was under 10%; in the experiment with T47D, 15%; in the experiment on BT-549, under 10%; in the experiment with Hs-578T it was 19%; with MDA-MB-231, 19%. In addition, the inhibition of growth at 10 µM was under 10% in the experiment with MDA-MB-435; under 10% with Malme-3M; under 10% in the experiment with SNB-19; under 10% in the experiment on SF-295; under 10% in the experiment on SW-620; 20% in the experiment on HCT-116. Besides, the inhibition of growth at 10 µM with NCI-H522, with IGROV-1, in the experiment on UACC-257, in the experiment on NCI-H460 and with HOP-62 was under 10% each time.

Consider `O=c1c2ccccc2nc(SCc2nnc(S)n2Cc2ccccc2)n1CCc1ccccc1`, for which the inhibition of growth at 10 µM with 786-0 was under 10%; in the experiment on SK-OV-3 it was under 10%; in the experiment on T47D, 38%; in the experiment on BT-549, under 10%; in the experiment with Hs-578T, under 10%; in the experiment on MDA-MB-231, 28%. The inhibition of growth at 10 µM is under 10% with MDA-MB-435; under 10% in the experiment with Malme-3M; under 10% in the experiment with SNB-19; under 10% with SF-295; under 10% in the experiment with SW-620; 24% in the experiment on HCT-116. Also, the inhibition of growth at 10 µM was 46% in the experiment on NCI-H522; under 10% in the experiment on IGROV-1; under 10% with UACC-257; 22% in the experiment on NCI-H226; under 10% with HOP-62; 13% with CCRF-CEM.

Turning to `O=C1c2ccccc2C(=O)N1CCCSc1nc2ccccc2c(=O)n1CCc1ccccc1`, the inhibition of growth at 10 µM in the experiment with 786-0 was 13%; with SK-OV-3, 12%; with T47D it was 30%; with BT-549, under 10%; in the experiment with MDA-MB-231, 14%; in the experiment with MDA-MB-435 it was under 10%. Further, the inhibition of growth at 10 µM in the experiment with Malme-3M was under 10%; in the experiment with SNB-19, under 10%; in the experiment on SF-295, under 10%; in the experiment with SW-620, under 10%; with HCT-116, 21%; in the experiment on NCI-H522 it was 13%. The inhibition of growth at 10 µM in the experiment with IGROV-1, in the experiment with UACC-257, with NCI-H460, with NCI-H226 and with HOP-62 was under 10% in each case.

In the case of `CSc1nc2ccccc2c(=O)n1CCc1ccccc1`, the inhibition of growth at 10 µM with SK-OV-3 is under 10%; in the experiment on T47D, 59%; in the experiment on BT-549, under 10%; in the experiment with Hs-578T it was 14%; in the experiment with MDA-MB-231, 30%; in the experiment with MDA-MB-435 it was 47%. The inhibition of growth at 10 µM was under 10% in the experiment on Malme-3M; under 10% with SNB-19; under 10% in the experiment on SF-295; 12% in the experiment with SW-620; 37% in the experiment on HCT-116; under 10% with NCI-H522. For the same compound, the inhibition of growth at 10 µM was 24% with IGROV-1; under 10% in the experiment on UACC-257; under 10% in the experiment with NCI-H460; 11% with NCI-H226; 12% with HOP-62.

For `O=C(CSc1nc2ccccc2c(=O)n1CCc1ccccc1)c1ccc(F)cc1`, the inhibition of growth at 10 µM in the experiment on 786-0 was 32%; with SK-OV-3, under 10%; with T47D, 18%; with BT-549 it was under 10%; with Hs-578T, 25%; with MDA-MB-231, 23%. Moreover, the inhibition of growth at 10 µM is under 10% in the experiment on MDA-MB-435; under 10% in the experiment on Malme-3M; under 10% in the experiment with SNB-19; under 10% with SF-295; under 10% in the experiment on SW-620; 18% with HCT-116. For the same compound, the inhibition of growth at 10 µM is under 10% in the experiment on NCI-H522; 21% in the experiment on IGROV-1; under 10% with UACC-257; under 10% with NCI-H460; under 10% in the experiment with NCI-H226; under 10% with HOP-62.

Turning to `O=c1c2ccccc2nc(SCCN2CCOCC2)n1CCc1ccccc1`, the inhibition of growth at 10 µM with 786-0, in the experiment on SK-OV-3, in the experiment with BT-549, in the experiment with Hs-578T, in the experiment with MDA-MB-231 and in the experiment on MDA-MB-435 was under 10% throughout. For the same compound, the inhibition of growth at 10 µM with Malme-3M, in the experiment with SNB-19, in the experiment on SF-295, in the experiment with SW-620, in the experiment with HCT-116 and with NCI-H522 was under 10% each time. Also, the inhibition of growth at 10 µM with IGROV-1, in the experiment with UACC-257, in the experiment on NCI-H460, with NCI-H226 and in the experiment on HOP-62 was under 10% in each case.

On to `O=C(CSc1nc2ccccc2c(=O)n1CCc1ccccc1)c1ccccc1`, for which the inhibition of growth at 10 µM in the experiment with 786-0 is under 10%; in the experiment with SK-OV-3 it was under 10%; in the experiment with T47D it was under 10%; in the experiment with BT-549, under 10%; with Hs-578T, under 10%; with MDA-MB-231, 11%. Moreover, the inhibition of growth at 10 µM is under 10% with MDA-MB-435; 14% with Malme-3M; under 10% with SNB-19; 18% with SF-295; under 10% with SW-620; 19% in the experiment with HCT-116. Further, the inhibition of growth at 10 µM with NCI-H522 is 11%; in the experiment on IGROV-1, under 10%; in the experiment on UACC-257, under 10%; in the experiment with NCI-H460 it was under 10%; in the experiment on NCI-H226, under 10%; with HOP-62, under 10%.
